Laboratory results: paper PMC10467532, “Design, synthesis, and biological evaluation of thiazole/thiadiazole carboxamide scaffold-based derivatives as potential c-Met kinase inhibitors for cancer treatment” (Journal of Enzyme Inhibition and Medicinal Chemistry, 2023)

Assays:
[1] = test system: FHC; assay: MTT cytotoxicity assay, normal FHC cells; conditions: Homo sapiens, 48 h, read-out: IC50 FHC
Experimental: (§1) MTT assay was used to determine the cytotoxic activity of target compounds against different cell lines. […] Then, the cells were treated with five doses of test compounds (pre-dissolved in DMSO), and 0.1% DMSO was used as a negative control. […] The results expressed as IC50 were the average of three determinations calculated by using the Bacus Laboratories Incorporated Slide Scanner (Bliss) software.

[2] = test system: A549; assay: MTT antiproliferative assay, A549; conditions: Homo sapiens, A549, 48 h, read-out: IC50 A549
Experimental: as §1

[3] = test system: MKN-45; assay: MTT antiproliferative assay, MKN-45; conditions: Homo sapiens, MKN-45, 48 h, read-out: IC50 MKN-45
Experimental: as §1

[4] = test system: MDA-MB-231; assay: MTT antiproliferative assay, MDA-MB-231; conditions: Homo sapiens, MDA-MB-231, 48 h, read-out: IC50 MDA-MB-231
Experimental: as §1

[5] = test system: HT-29; assay: MTT antiproliferative assay, HT-29; conditions: Homo sapiens, HT-29, 48 h, read-out: IC50 HT-29
Experimental: as §1

[6] = test system: HUVEC; assay: MTT cytotoxicity assay, normal HUVEC cells; conditions: Homo sapiens, 48 h, read-out: IC50 HUVEC
Experimental: as §1

[7] = target: T1, c-Met (Homo sapiens, UniProt P08581); assay: In vitro c-Met enzymatic assay (HTRF); format: biochemical; conditions: HTRF assay; mean ± SD, triplicate; read-out: IC50 against c-Met
T1 construct: purchased Invitrogen (Waltham, MA)
Experimental: Inhibition of target compounds on c-Met kinase activity was measured by using the homogeneous time-resolved fluorescence (HTRF) assay.
The tyrosine kinases inhibitory activities of target compounds were evaluated in 384-well microtiter plates using purified kinases purchased from Invitrogen (Waltham, MA) by homogeneous time-resolved fluorescence (HTRF) assay. The HTRF KinEASE TK kit was performed according to the instructions. After the kinases and test compounds were incubated at 25–30 °C for 5 min, the kinase reactions were initiated by addition of 39 μL of kinase reaction buffer solution and incubated at 25–30 °C for 30 min. The reactions were quenched by addition 10 µL mixed detection solution. […] The inhibition rate (%) was calculated using the following equation: inhibition rate = [(activity of enzyme with tested compound – min)/(max – min)] × 100 (max: the enzyme activity in the presence of enzyme, substrates and cofactors; min: the enzyme activity in the presence of substrates, cofactors and in the absence of enzyme). IC50 value was calculated from the inhibition curve using GraphPad Prism 5.0 software (La Jolla, CA).

T1 sequence (P08581 25-1390): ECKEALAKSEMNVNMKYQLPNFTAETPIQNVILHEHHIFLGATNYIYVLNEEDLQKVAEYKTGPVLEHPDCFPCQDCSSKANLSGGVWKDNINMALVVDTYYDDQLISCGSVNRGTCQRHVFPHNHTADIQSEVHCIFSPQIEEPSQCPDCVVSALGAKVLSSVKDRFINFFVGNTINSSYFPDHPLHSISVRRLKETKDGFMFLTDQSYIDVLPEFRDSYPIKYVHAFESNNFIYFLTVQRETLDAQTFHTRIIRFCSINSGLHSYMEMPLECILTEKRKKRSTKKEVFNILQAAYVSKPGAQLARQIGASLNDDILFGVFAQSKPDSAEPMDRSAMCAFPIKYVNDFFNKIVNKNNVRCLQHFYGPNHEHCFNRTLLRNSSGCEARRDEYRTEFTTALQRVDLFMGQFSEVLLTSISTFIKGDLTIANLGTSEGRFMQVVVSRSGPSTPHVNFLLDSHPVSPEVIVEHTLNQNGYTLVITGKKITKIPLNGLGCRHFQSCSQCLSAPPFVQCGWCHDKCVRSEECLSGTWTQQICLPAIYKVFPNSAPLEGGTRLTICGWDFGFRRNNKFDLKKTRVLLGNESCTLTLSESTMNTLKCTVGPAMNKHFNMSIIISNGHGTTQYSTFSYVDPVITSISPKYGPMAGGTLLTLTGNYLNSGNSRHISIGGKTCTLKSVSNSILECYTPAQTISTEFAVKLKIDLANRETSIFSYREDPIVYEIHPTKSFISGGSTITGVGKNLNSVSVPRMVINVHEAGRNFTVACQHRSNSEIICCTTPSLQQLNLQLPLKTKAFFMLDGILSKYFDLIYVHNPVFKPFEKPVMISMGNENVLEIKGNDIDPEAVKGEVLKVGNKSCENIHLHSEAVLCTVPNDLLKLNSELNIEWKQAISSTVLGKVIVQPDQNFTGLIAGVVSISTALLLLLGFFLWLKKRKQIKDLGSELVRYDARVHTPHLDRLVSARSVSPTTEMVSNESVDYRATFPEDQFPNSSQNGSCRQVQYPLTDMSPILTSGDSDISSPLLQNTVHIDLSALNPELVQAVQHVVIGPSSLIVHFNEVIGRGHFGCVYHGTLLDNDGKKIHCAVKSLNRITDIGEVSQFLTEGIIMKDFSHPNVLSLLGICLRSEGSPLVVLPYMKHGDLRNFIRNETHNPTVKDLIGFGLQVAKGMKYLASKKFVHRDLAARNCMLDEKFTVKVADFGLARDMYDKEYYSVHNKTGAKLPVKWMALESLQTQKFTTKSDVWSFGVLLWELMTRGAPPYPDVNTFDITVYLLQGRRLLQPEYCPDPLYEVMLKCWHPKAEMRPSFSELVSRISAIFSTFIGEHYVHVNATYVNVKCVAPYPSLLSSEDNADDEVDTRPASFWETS

IC50 [2]	IC50 [3]	IC50 [4]	IC50 [5]	melting point	IC50 [7]	Compound	IC50 [1]	IC50 [6]
9.83 ± 1.22 µM	3.17 ± 0.84 µM	28.1 ± 1.96 µM	15.2 ± 2.26 µM	188 to 190 °C	0.0247 ± 0.00195 µM	COc1cc2ncnc(Oc3ccc(NC(=O)c4nc(-c5ccc(F)cc5)cs4)cc3F)c2cc1OC [Compound 51p, N-(4-((6,7-Dimethoxyquinazolin-4-yl)oxy)-3-fluorophenyl)-4-(4-fluorophenyl)thiazole-2-carboxamide]	46.4 ± 6.24 µM	33.6 ± 2.68 µM
12.9 ± 1.82 µM	5.95 ± 0.63 µM	32.5 ± 2.68 µM	19.4 ± 2.48 µM	251 to 253 °C	0.0385 ± 0.00423 µM	O=C(Nc1ccc(Oc2ccnc3ccsc23)c(F)c1)c1nc(-c2ccccc2)cs1 [Compound 51q, N-(3-Fluoro-4-(thieno[3,2-b]pyridin-7-yloxy)phenyl)-4-phenylthiazole-2-carboxamide]	80.6 ± 4.52 µM	69.5 ± 2.68 µM
10.5 ± 1.76 µM	5.02 ± 0.77 µM	28.9 ± 3.13 µM	18.3 ± 3.62 µM	223 to 225 °C	0.0353 ± 0.00519 µM	O=C(Nc1ccc(Oc2ccnc3ccsc23)c(F)c1)c1nc(-c2ccc(F)cc2)cs1 [Compound 51r, N-(3-Fluoro-4-(thieno[3,2-b]pyridin-7-yloxy)phenyl)-4-(4-fluorophenyl)thiazole-2-carboxamide]	51.2 ± 4.61 µM	40.6 ± 2.25 µM
18.4 ± 2.33 µM	6.05 ± 0.94 µM	32.8 ± 2.7 µM	25.6 ± 1.76 µM	95 to 97 °C	0.0433 ± 0.00625 µM	O=C(Nc1ccc(Oc2ncnc3ccsc23)c(F)c1)c1nc(-c2ccccc2)cs1 [Compound 51s, N-(3-Fluoro-4-(thieno[3,2-d]pyrimidin-4-yloxy)phenyl)-4-phenylthiazole-2-carboxamide]	65.5 ± 5.56 µM	43.4 ± 3.65 µM
14.5 ± 2.87 µM	5.45 ± 0.65 µM	36.6 ± 2.83 µM	23.1 ± 3.34 µM	146 to 148 °C	0.0404 ± 0.00366 µM	O=C(Nc1ccc(Oc2ncnc3ccsc23)c(F)c1)c1nc(-c2ccc(F)cc2)cs1 [Compound 51t, N-(3-Fluoro-4-(thieno[3,2-d]pyrimidin-4-yloxy)phenyl)-4-(4-fluorophenyl)thiazole-2-carboxamide]	67.4 ± 4.38 µM	41.4 ± 2.39 µM
16.8 ± 2.28 µM	5.53 ± 1.26 µM	35.9 ± 2.52 µM	26.4 ± 3.22 µM	78 to 80 °C	0.0404 ± 0.00553 µM	O=C(Nc1ccc(Oc2ncnc3sccc23)c(F)c1)c1nc(-c2ccccc2)cs1 [Compound 51u, N-(3-Fluoro-4-(thieno[2,3-d]pyrimidin-4-yloxy)phenyl)-4-phenylthiazole-2-carboxamide]	48.2 ± 5.04 µM	38.8 ± 3.53 µM
12.6 ± 1.83 µM	4.23 ± 0.94 µM	29.1 ± 2.52 µM	19.2 ± 2.85 µM	154 to 156 °C	0.0376 ± 0.00288 µM	O=C(Nc1ccc(Oc2ncnc3sccc23)c(F)c1)c1nc(-c2ccc(F)cc2)cs1 [Compound 51v, N-(3-Fluoro-4-(thieno[2,3-d]pyrimidin-4-yloxy)phenyl)-4-(4-fluorophenyl)thiazole-2-carboxamide]	63.3 ± 3.35 µM	54.4 ± 4.16 µM

Continued, compound first:

Compound	IC50 [2]	IC50 [3]	IC50 [4]	IC50 [5]	melting point	IC50 [7]	IC50 [1]	IC50 [6]
COc1cc2nccc(Oc3ccc(NC(=O)c4nnc(-c5ccccc5)s4)cc3)c2cc1OC [Compound 51c, N-(4-((6,7-Dimethoxyquinolin-4-yl)oxy)phenyl)-5-phenyl-1,3,4-thiadiazole-2-carboxamide]	20.6 ± 1.96 µM	6.94 ± 1.06 µM	34.7 ± 2.58 µM	29.3 ± 3.85 µM	141 to 143 °C	0.0457 ± 0.00388 µM	71.3 ± 5.25 µM	53.5 ± 4.62 µM
COc1cc2nccc(Oc3ccc(NC(=O)c4nnc(-c5ccc(F)cc5)s4)cc3)c2cc1OC [Compound 51d, N-(4-((6,7-Dimethoxyquinolin-4-yl)oxy)phenyl)-5-(4-fluorophenyl)-1,3,4-thiadiazole-2-carboxamide]	19 ± 2.46 µM	6.65 ± 0.94 µM	33.6 ± 4.35 µM	24.6 ± 1.87 µM	136 to 138 °C	0.0415 ± 0.00276 µM	68.6 ± 4.83 µM	52.4 ± 3.85 µM
COc1cc2nccc(Oc3ccc(NC(=O)c4nc(-c5ccccc5)cs4)cc3)c2cc1OC [Compound 51e, N-(4-((6,7-Dimethoxyquinolin-4-yl)oxy)phenyl)-4-phenylthiazole-2-carboxamide]	16.6 ± 2.16 µM	5.86 ± 0.93 µM	> 50 µM	21.8 ± 1.66 µM	63 to 65 °C	0.0345 ± 0.00465 µM	64.5 ± 6.12 µM	56.5 ± 4.81 µM
COc1cc2nccc(Oc3ccc(NC(=O)c4ncc(-c5ccccc5)s4)cc3)c2cc1OC [Compound 51g, N-(4-((6,7-Dimethoxyquinolin-4-yl)oxy)phenyl)-5-phenylthiazole-2-carboxamide]	17.4 ± 2.23 µM	6.21 ± 0.85 µM	32.8 ± 2.23 µM	23.4 ± 1.58 µM	260 to 262 °C	0.0394 ± 0.00325 µM	54.5 ± 3.25 µM	48.4 ± 2.54 µM
COc1cc2nccc(Oc3ccc(NC(=O)c4ncc(-c5ccc(F)cc5)s4)cc3)c2cc1OC [Compound 51h, N-(4-((6,7-Dimethoxyquinolin-4-yl)oxy)phenyl)-5-(4-fluorophenyl)thiazole-2-carboxamide]	16.8 ± 1.58 µM	5.97 ± 0.98 µM	34.2 ± 2.82 µM	22.7 ± 3.32 µM	252 to 254 °C	0.0354 ± 0.00503 µM	50.2 ± 2.89 µM	42.1 ± 4.35 µM
COc1cc2nccc(Oc3ccc(NC(=O)c4nc(-c5ccccc5)cs4)c(F)c3)c2cc1OC [Compound 51i, N-(4-((6,7-Dimethoxyquinolin-4-yl)oxy)-2-fluorophenyl)-4-phenylthiazole-2-carboxamide]	15.6 ± 1.86 µM	5.35 ± 0.84 µM	35.5 ± 4.62 µM	22.9 ± 2.43 µM	112 to 114 °C	0.0312 ± 0.00416 µM	60.2 ± 5.33 µM	44.3 ± 5.64 µM
COc1cc2nccc(Oc3ccc(NC(=O)c4nc(-c5ccccc5)cs4)cc3F)c2cc1OC [Compound 51j, N-(4-((6,7-Dimethoxyquinolin-4-yl)oxy)-3-fluorophenyl)-4-phenylthiazole-2-carboxamide]	13.8 ± 1.76 µM	4.58 ± 0.75 µM	32.3 ± 2.78 µM	19.6 ± 2.89 µM	90 to 92 °C	0.0295 ± 0.00342 µM	> 100 µM	45.6 ± 5.12 µM
COc1cc2nccc(Oc3ccc(NC(=O)c4nc(-c5ccccc5)cs4)c(Cl)c3)c2cc1OC [Compound 51k, N-(2-Chloro-4-((6,7-dimethoxyquinolin-4-yl)oxy)phenyl)-4-phenylthiazole-2-carboxamide]	14.5 ± 1.64 µM	6.87 ± 0.86 µM	33.3 ± 4.21 µM	23.4 ± 4.32 µM	201 to 203 °C	0.033 ± 0.00266 µM	> 100 µM	> 100 µM
COc1cc2nccc(Oc3ccc(NC(=O)c4nc(-c5ccccc5)cs4)cc3Cl)c2cc1OC [Compound 51l, N-(3-Chloro-4-((6,7-dimethoxyquinolin-4-yl)oxy)phenyl)-4-phenylthiazole-2-carboxamide]	13.2 ± 2.41 µM	6.23 ± 0.72 µM	32.1 ± 2.54 µM	20.9 ± 3.56 µM	146 to 148 °C	0.0319 ± 0.00451 µM	51.6 ± 3.96 µM	40.9 ± 2.32 µM
COc1cc2nccc(Oc3ccc(NC(=O)c4nc(-c5ccccc5)cs4)c(C)c3)c2cc1OC [Compound 51m, N-(4-((6,7-Dimethoxyquinolin-4-yl)oxy)-2-methylphenyl)-4-phenylthiazole-2-carboxamide]	14.1 ± 1.87 µM	6.43 ± 0.76 µM	35.2 ± 4.23 µM	22.3 ± 1.75 µM	209 to 211 °C	0.0398 ± 0.00547 µM	49.6 ± 5.04 µM	38.8 ± 3.55 µM
COc1cc2ncnc(Oc3ccc(NC(=O)c4nc(-c5ccccc5)cs4)cc3F)c2cc1OC [Compound 51o, N-(4-((6,7-Dimethoxyquinazolin-4-yl)oxy)-3-fluorophenyl)-4-phenylthiazole-2-carboxamide]	12.2 ± 1.63 µM	4.23 ± 0.96 µM	29.6 ± 3.54 µM	18.7 ± 3.13 µM	115 to 117 °C	0.0296 ± 0.00384 µM	50.3 ± 3.58 µM	36.6 ± 4.23 µM
O=C(Nc1ccc(Oc2ccnc(Cl)c2)c(F)c1)c1nc(-c2ccccc2)cs1 [Compound 51w, N-(4-((2-Chloropyridin-4-yl)oxy)-3-fluorophenyl)-4-phenylthiazole-2-carboxamide]	7.26 ± 1.37 µM	2.53 ± 0.62 µM	26.3 ± 3.09 µM	12.5 ± 2.39 µM	205 to 207 °C	0.0243 ± 0.00167 µM	48.2 ± 5.04 µM	38.6 ± 3.53 µM
